Patent US20220127297A1, “Novel Antibacterial 3"-Derivatives Of 4,6-Disubstituted 2,5-Dideoxystreptamine Aminoglycoside Antibiotics” (AGILeBiotics B.V., priority 2018, published 2022)
Converted amounts (≈) assume the structure as drawn.

Assays:
Format in all cases: cell-based, Escherichia coli
E. coli (AAC(3)IV) = assay: MIC 50, broth micro-dilution, E. coli expressing AAC(3)IV
Experimental: (§1) Plasmid transformation. Approximately 500 ng of the pET-9b(+) (Cat. No. 69432-3, Merck), pAT21-1 (provided by Prof. Dr. Patrice Courvalin, M.D., Pasteur Institute, France; prepared according to Trieu-Cuot et. al, Mol. Gen. Genet. 198(2), 348 (1985)), pBluescript::AAC(6′)-Ie/APH(2″)-Ia (provided by Prof. Dr. Sergei Vakulenko, M.D., University of Notre Dame, Ind., USA; prepared according to S. B. Vakulenko et. al., J. Biol. Chem. 287 (52), 43262 (2012)), pBlue_lpp_aacC3_rrnC and pSET152 (Cat. No. PVT3395, Life Science Market; prepared according to Bierman et al., Gene 116 (1), 43 (1992)) plasmids, encoding APH(3′)-Ia (SEQ ID NO:2), APH(3′)-IIIa (SEQ ID NO:3), AAC(6′)Ie-APH(2″)-Ia (SEQ ID NO:4), AAC(3)-III (SEQ ID NO:1), and AAC(3)-IV (SEQ ID NO:5) respectively, were individually incubated in a vial of competent cells for 15 min on ice. The cells were subsequently heated to 42° C. for 90 s, and cooled on ice for 1 min. After addition of 900 μL LB, the cells were incubated for 1 h at 37° C. and 200 rpm. Cells were plated on LB-agar supplemented with 50 μg/mL KanaA and incubated for 18 h at 37° C. The next day, a single colony was inoculated in 5 mL LB supplemented with 50 μg/mL and grown for 18 h at 37° C. and 200 rpm. A 200 μL sample of each culture was diluted with 200 μL of 40% v/v glycerol in water, and stored at −80° C. The plasmid was purified from the remaining culture using the Plasmid Miniprep kit. Plasmid DNA was investigated by Eurofins Genomics (Germany) to confirm the identity of the aminoglycoside resistance genes.
(§2) 3.1 Against E. coli Strains
(§3) Tested reference compounds. Amikacin sulfate (Cat. No. 01693, Chem-Impex), Gentamicin sulfate (Cat. No. G4918, Sigma Aldrich).
(§4) Microbial strains. E. coli ATCC 25922, E. coli ATCC 25922/pET-9b(+), E. coli ATCC 25922/pAT21-1, E. coli ATCC 25922/pBluescript::AAC(6′)-Ie/APH(2″)-Ia, E. coli ATCC 25922/pBlue_lpp_aacC3_rrnC, E. coli ATCC 25922/pSET152.
(§5) Culture media and equipment. BBL™ Mueller Hinton Broth 2 (Lot. BCBW1143, Cat. No. 70192, Sigma); Kanamycin A (Cat. No. A1493, AppliChem); 96-well deep well plate, 1 mL (Cat. No. 0030506.200, Eppendorf); Plate lids (Cat. No. 0030131.525, Eppendorf); 96-well plate, F-bottom (Cat. No. 781602, Brand; Incubator, Infors Multitron Pro); Laminar flow (Heraeus KS12); UV/VIS meter (Eppendorf BioPhotometer Plus); Platereader (Tecan Sunrise).
(§6) Compound preparation. Compounds were prepared in MH2 media at a concentration of 5 mM and stored at 4° C. For testing, solutions of 128 μM were prepared in MH2. Out of these working solutions, 400 μL was transferred to wells in the first column of 96-well deep well plates. Each compound was transferred in triplicate. Plates were previously filled with 200 μL of MH2 media in all wells except for the wells in the first column. After compound and antibiotic addition, the compounds were serial two-fold diluted by transferring 200 μL from the first to the second column, then from the second to the third column and so on. Finally, 200 μL was removed from the last column.
(§7) Inoculum preparation. Microorganisms used were all revived from 20% glycerol (40% v/v glycerol in water was diluted with MH2) storage at −80° C. by inoculating them in 5 mL MH2. inoculums of E. coli containing a plasmid were selected for by adding 50 μg/mL KanaA. The Inoculums were grown to an optical density (measured by UV/Vis spectroscopy) of 0.6-0.8 at 600 nm. Out of these suspensions, actual inoculums were prepared by diluting them to an optical density (OD) of 0.1 in MH2 media. From these inoculums, 200 μL was transferred to each well, resulting in a final compound concentration range of 64 μM-31.3 nM. All plates were incubated at 900 rpm and 70% rH for 18 h at 37° C.
(§8) MIC determination. After 18 h of growth, 200 μL was transferred to a 96-well F-bottom plate. The optical density was determined by a plate reader at 600 nm, with 10 s shaking before reading. Triplicate measurements were averaged, and a growth curve was plotted in Microsoft Excel. […]

E. coli (AAC(3)III) = assay: MIC 50, broth micro-dilution, E. coli expressing AAC(3)III
Source text: Cloning resistant enzymes. An Escherichia coli codon optimized gene encoding AAC(3)-III (GenBank acc.nr. X55652.1; SEQ ID NO:1), including a promoter and terminator sequence, was synthesized by Integrated DNA Technologies, Belgium. The synthesized gene and pBluescript II KS(+) plasmid were digested using the restriction enzymes SacI and SalI, and purified from a 1% TBE-agarose gel using the illustra Gel Band purification kit. The purified linear plasmid and T4 DNA ligase were used to ligate aac(3)-III under control of the constitutive lipoprotein Ipp promoter and ribosomal RNA rrnC terminator, resulting in pBlue_Ipp_aacC3_rrnC.
as §1, §2, §3, §4, §5, §6
Inoculum preparation. Microorganisms used were all revived from 20% glycerol (40% v/v glycerol in water was diluted with MH2) storage at −80° C. by inoculating them in 5 mL MH2. inoculums of E. coli containing a plasmid were selected for by adding 50 μg/mL KanaA.

E. coli (APH(3′)IIIa) = assay: MIC 50, broth micro-dilution, E. coli expressing APH(3′)IIIa
Experimental: as §1, §2, §3, §4, §5, §6, §7, §8

[1] = Escherichia coli, ATCC25922, ATCC25922 harboring plasmid encoding AAC(3)IV
[2] = Escherichia coli, ATCC25922, ATCC25922 harboring plasmid encoding AAC(3)III
[3] = Escherichia coli, ATCC25922, ATCC25922 harboring plasmid encoding APH(3′)IIIa
[4] = ATCC25922 harboring plasmid encoding AAC(3)IV
[5] = ATCC25922 harboring plasmid encoding APH(3′)IIIa
[6] = ATCC25922 harboring plasmid encoding AAC(3)III

SMILES | MIC50 (E. coli (AAC(3)IV); [1]) [µM] | MIC50 (E. coli (AAC(3)III); [2]) [µM] | MIC50 (E. coli (APH(3′)IIIa); [3]) [µM] | MIC50 (E. coli (AAC(3)IV); [4]) [µM] | MIC50 (E. coli (APH(3′)IIIa); [5]) [µM] | MIC50 (E. coli (AAC(3)III); [6]) [µM]
CC(C)(C)CCNC(=N)NC1[C@@H](O)C(OC2[C@@H](F)[C@H](O[C@H]3OC(CN)[C@@H](O)CC3N)C(N)C[C@H]2NC(=O)[C@@H](O)CCN)O[C@H](CO)[C@H]1O (some centres unmarked) [ABX5025, Tobra-AHB-F-Gua 2-tBu-ethyl] | 2 (≈ 1.39 µg/mL) | 0.5 (≈ 0.348 µg/mL) |  |  |  | 
N=C(NC[C@@H]1CNCCO1)NC1[C@@H](O)C(OC2[C@@H](F)[C@H](O[C@H]3OC(CN)[C@@H](O)CC3N)C(N)C[C@H]2NC(=O)[C@@H](O)CCN)O[C@H](CO)[C@H]1O (stereo partly drawn) [ABX5040, Tobra-AHB-F-Gua (S) morpholin-2-yl methyl] | 1 (≈ 0.712 µg/mL) | 0.25 (≈ 0.178 µg/mL) | 0.25 (≈ 0.178 µg/mL) |  |  | 
C[C@@H](N)CCNC(=N)NC1[C@@H](O)C(OC2[C@@H](F)[C@H](O[C@H]3OC(CN)[C@@H](O)CC3N)C(N)C[C@H]2NC(=O)[C@@H](O)CCN)O[C@H](CO)[C@H]1O (stereo partly drawn) [ABX5047, Tobra-AHB-F-Gua (R) 3-amino-butyl] | 1 to 2 (≈ 0.684 to 1.37 µg/mL) | 0.25 (≈ 0.171 µg/mL) | 0.25 (≈ 0.171 µg/mL) |  |  | 
N=C(NCCCO)NC1[C@@H](O)C(OC2[C@@H](F)[C@H](O[C@H]3OC(CN)[C@@H](O)CC3N)C(N)C[C@H]2NC(=O)[C@@H](O)CCN)O[C@H](CO)[C@H]1O (some centres unmarked) [ABX5041, Tobra-AHB-F-Gua 3-hydroxy-propyl] | 2 (≈ 1.34 µg/mL) | 0.5 (≈ 0.335 µg/mL) | 0.5 (≈ 0.335 µg/mL) |  |  | 
N=C(NCC1CCCO1)NC1[C@@H](O)C(OC2[C@@H](F)[C@H](O[C@H]3OC(CN)[C@@H](O)CC3N)C(N)C[C@H]2NC(=O)[C@@H](O)CCN)O[C@H](CO)[C@H]1O (some centres unmarked) [ABX5046, Tobra-AHB-F-Gua tetrahydrofuran-2-yl methyl] | 1 to 2 (≈ 0.697 to 1.39 µg/mL) | 0.5 (≈ 0.348 µg/mL) | 0.5 (≈ 0.348 µg/mL) |  |  | 
NCC[C@H](O)C(=O)N[C@@H]1C[C@H](N)[C@@H](O[C@H]2O[C@H](CN)[C@@H](O)[C@@H](O)[C@H]2O)[C@H](O)[C@H]1O[C@H]1O[C@H](CO)[C@@H](O)[C@H](N)[C@H]1O [ABX3002, 3′Epi-KanaA-AHB] |  |  |  | 32 (≈ 18.7 µg/mL) | 16 to 32 | 16 (≈ 9.37 µg/mL)
N=C(NCCN)NC1C(O)[C@@H](CO)OC(OC2C(F)[C@H](O[C@H]3OC(CN)[C@@H](O)CC3N)C(N)C[C@H]2NC(=O)[C@@H](O)CCN)[C@@H]1O (some centres unmarked) [ABX5020, Tobra-AHB-F-Gua-2-amino-ethyl] | 1 (≈ 0.656 µg/mL) | 0.25 to 0.5 (≈ 0.164 to 0.328 µg/mL) | 0.5 (≈ 0.328 µg/mL) |  |  | 
N=C(N)N[C@@H]1[C@@H](O)[C@@H](O[C@@H]2[C@@H](O)[C@H](O[C@H]3O[C@H](CN)[C@@H](O)[C@@H](O)[C@H]3N)[C@@H](N)C[C@H]2NC(=O)[C@@H](O)CCN)O[C@H](CO)[C@H]1O [ABX4005, 3′Epi-KanaB-AHB-Gua] |  |  |  | 16 (≈ 10 µg/mL) | 8 to 16 | 4 (≈ 2.51 µg/mL)
NCC[C@H](O)C(=O)N[C@@H]1CC(N)[C@@H](O[C@H]2OC(CN)[C@@H](O)CC2N)[C@H](O)C1OC1O[C@H](CO)[C@@H](O)C(N)[C@H]1O (some centres unmarked) [ABX5004, Tobra-AHB] |  |  |  | 4 (≈ 2.27 µg/mL) | 4 to 8 | 1 (≈ 0.569 µg/mL)
NCC[C@H](O)C(=O)N[C@@H]1CC(N)[C@@H](O[C@H]2OC(CN)[C@@H](O)CC2N)[C@H](F)C1OC1O[C@H](CO)[C@@H](O)C(N)[C@H]1O (some centres unmarked) [ABX5024, Tobra-AHB-F] |  |  |  | 2 (≈ 1.14 µg/mL) | 1 (≈ 0.571 µg/mL) | 1 (≈ 0.571 µg/mL)
N=C(NC[C@H]1CNCCO1)NC1[C@@H](O)C(OC2[C@@H](F)[C@H](O[C@H]3OC(CN)[C@@H](O)CC3N)C(N)C[C@H]2NC(=O)[C@@H](O)CCN)O[C@H](CO)[C@H]1O (stereo partly drawn) [ABX5043, Tobra-AHB-F-Gua (R) morpholin-2-yl methyl] | 1 (≈ 0.712 µg/mL) | 0.25 (≈ 0.178 µg/mL) | 0.25 (≈ 0.178 µg/mL) |  |  | 
NCCC(O)C(=O)NC1CC(N)C(OC2OC(CN)C(O)C(O)C2N)C(F)C1OC1OC(CO)C(O)C(N)C1O (centres unmarked) [ABX4007, KanaB-AHB-F] |  |  |  | 4 to 8 | 16 (≈ 9.39 µg/mL) | 1 (≈ 0.587 µg/mL)
N=C(NCc1cnc[nH]1)NC1[C@@H](O)C(OC2[C@@H](F)[C@H](O[C@H]3OC(CN)[C@@H](O)CC3N)C(N)C[C@H]2NC(=O)[C@@H](O)CCN)O[C@H](CO)[C@H]1O (some centres unmarked) [ABX5050, Tobra-AHB-F-Gua imidazol-5-yl methyl] | 2 to 4 (≈ 1.39 to 2.77 µg/mL) | 1 (≈ 0.693 µg/mL) | 1 to 2 (≈ 0.693 to 1.39 µg/mL) |  |  | 
NCCC(O)C(=O)NC1CC(N)C(OC2OC(CN)C(O)C(O)C2O)C(F)C1OC1OC(CO)C(O)C(N)C1O (stereo not drawn) [ABX3005, 3′Epi-KanaA-AHB-F] |  |  |  | 8 to 16 | 4 to 8 | 4 (≈ 2.35 µg/mL)
N=C(N)NC1[C@@H](O)C(OC2[C@@H](F)[C@H](O[C@H]3OC(CN)[C@@H](O)[C@H](O)C3N)C(N)C[C@H]2NC(=O)[C@@H](O)CCN)O[C@H](CO)[C@H]1O (stereo partly drawn) [ABX4004, 3′epi-KanaB-AHB-F-Gua] |  |  |  | 4 (≈ 2.51 µg/mL) | 1 to 2 | 0.5 (≈ 0.314 µg/mL)
NCCC(O)C(=O)NC1CC(N)C(OC2OC(CN)C(O)C(O)C2N)C(O)C1OC1OC(CO)C(O)C(N)C1O (centres unmarked) [ABX4001, KanaB-AHB] |  |  |  | 4 (≈ 2.34 µg/mL) | 8 to 16 | 1 to 2
N=C(N)NC1C(O)[C@@H](CO)OC(OC2C(F)[C@H](O[C@H]3OC(CN)[C@@H](O)CC3N)C(N)C[C@H]2NC(=O)[C@@H](O)CCN)[C@@H]1O (some centres unmarked) [ABX5006, Tobra-AHB-F-Gua] | 0.5 to 1 (≈ 0.306 to 0.613 µg/mL) | 0.25 (≈ 0.153 µg/mL) | < 0.25 |  |  | 
